Source: the NIST ThermoML archive (doi:10.1016/j.jct.2007.05.016)
Where “and” joins values, the source holds several entries; their conditions need not be identical. Equal values may be shown once. Numbers after ± are expanded uncertainties.

Legend:
[1] = 101 kPa, Liquid; for speed of sound: Sing-around technique in a fixed-path interferometer
[2] = xn = mol fraction of the nth substance listed; settings: 101 kPa, Liquid, x1 = 1; for speed of sound: Sing-around technique in a fixed-path interferometer

| SMILES | mass density ([1]; 298.15 K) [kg/m3] | viscosity ([1]; 298.15 K) [mPa·s] | speed of sound ([1]; 298.15 K) | mass density ([1]; 303.15 K) [kg/m3] | speed of sound ([1]; 303.15 K) [m/s] | mass density ([1]; 308.15 K) [kg/m3] | speed of sound ([1]; 308.15 K) [m/s] | speed of sound ([2]; 298.15 K) [m/s] | mass density ([2]; 298.15 K) [kg/m3] | viscosity ([2]; 298.15 K) [mPa·s] | speed of sound ([2]; 303.15 K) [m/s] | mass density ([2]; 303.15 K) [kg/m3] | speed of sound ([2]; 308.15 K) [m/s] | mass density ([2]; 308.15 K) [kg/m3] |
| --- | --- | --- | --- | --- | --- | --- | --- | --- | --- | --- | --- | --- | --- | --- |
| CCCCO [butan-1-ol] | 805.907 ± 0.77 | 2.573 ± 0.032 | 1240.5 ± 1.2 m/s and 1240.4 ± 1.2 m/s | 803.155 ± 0.78 | 1226.5 ± 1.2 | 799.249 ± 0.78 | 1209.8 ± 1.2 | – | – | – | – | – | – | – |
| CCCCO [butan-1-ol] + CCCCCC | – | – | – | – | – | – | – | 1240.5 ± 1.2 | 805.907 ± 0.77 | 2.573 ± 0.032 | 1226.5 ± 1.2 | 803.155 ± 0.78 | 1209.8 ± 1.2 | 799.249 ± 0.78 |
| CCCCO [butan-1-ol] + CCCCCCCC | – | – | – | – | – | – | – | 1240.4 ± 1.2 | 805.907 ± 0.77 | 2.573 ± 0.032 | 1226.5 ± 1.2 | 803.155 ± 0.78 | 1209.8 ± 1.2 | 799.249 ± 0.78 |
| CCCCO [butan-1-ol] + CCCCCCCCCC | – | – | – | – | – | – | – | 1240.5 ± 1.2 | 805.907 ± 0.77 | 2.573 ± 0.032 | 1226.5 ± 1.2 | 803.155 ± 0.78 | 1209.8 ± 1.2 | 799.249 ± 0.78 |

More lines, now with the values ahead:

| mass density ([1]; 298.15 K) [kg/m3] | viscosity ([1]; 298.15 K) [mPa·s] | speed of sound ([1]; 298.15 K) | mass density ([1]; 303.15 K) [kg/m3] | speed of sound ([1]; 303.15 K) [m/s] | mass density ([1]; 308.15 K) [kg/m3] | speed of sound ([1]; 308.15 K) [m/s] | speed of sound ([2]; 298.15 K) [m/s] | mass density ([2]; 298.15 K) [kg/m3] | viscosity ([2]; 298.15 K) [mPa·s] | speed of sound ([2]; 303.15 K) [m/s] | mass density ([2]; 303.15 K) [kg/m3] | speed of sound ([2]; 308.15 K) [m/s] | mass density ([2]; 308.15 K) [kg/m3] | SMILES |
| --- | --- | --- | --- | --- | --- | --- | --- | --- | --- | --- | --- | --- | --- | --- |
| 726.806 ± 0.93 | 0.852 ± 0.012 | 1234.8 ± 1.2 m/s | 723.042 ± 0.94 | 1215.2 ± 1.2 | 719.23 ± 0.95 | 1195.6 ± 1.2 | – | – | – | – | – | – | – | CCCCCCCCCC [decane] |
| 655.072 ± 1.1 | 0.313 ± 0.008 | 1077.8 ± 1.2 m/s | 650.369 ± 1.1 | 1055.2 ± 1.1 | 645.767 ± 1.1 | 1032.9 ± 1.1 | – | – | – | – | – | – | – | CCCCCC [hexane] |
| 698.58 ± 0.99 | 0.518 ± 0.009 | 1172.7 ± 1.2 m/s | 694.497 ± 1 | 1152.1 ± 1.2 | 690.416 ± 1 | 1131.7 ± 1.2 | – | – | – | – | – | – | – | CCCCCCCC [octane] |
